Here are results for ten compounds from publication PMC5568477 (Bioorganic & medicinal chemistry letters, 2017).

The structures appear in SMILES notation.

The first test deals with T1, olfactomedin domain of human myocilin (myoc-OLF) (Homo sapiens, UniProt Q99972).
T1 sequence (Q99972 244-503 limits assumed): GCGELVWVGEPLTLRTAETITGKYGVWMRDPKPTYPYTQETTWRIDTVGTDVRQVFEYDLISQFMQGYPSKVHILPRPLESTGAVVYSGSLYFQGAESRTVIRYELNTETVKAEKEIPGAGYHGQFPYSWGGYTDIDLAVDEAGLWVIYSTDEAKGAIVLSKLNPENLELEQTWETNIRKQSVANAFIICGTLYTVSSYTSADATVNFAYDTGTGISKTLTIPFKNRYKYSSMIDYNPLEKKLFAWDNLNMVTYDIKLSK
As to the kind of experiment: Thermal shift assay by differential scanning fluorimetry. The test is classed as binding.
Details: not given
With `Cc1cc(N(CCCl)CCCl)ccc1/C=N/NC(=O)Cc1cc(=O)oc2cc(O)ccc12` [NSC79688], the Kd worked out at 2 µM.

Staying with this test, now noted: initial round of screening; DSF, 5 μM protein; protein alone Tm 49.83.
As to `O=C(Cn1ccc(=O)[nH]c1=O)Nc1ccc(C(=O)O)c(O)c1` [NSC93033], the Tm was 51.49 °C. Still for that read-out and setting: for `Nc1nc(N)c(/N=N/c2ccc(C(=O)O)cc2)c(N)n1` [NSC408734] the value was 51.61 °C; for `O=C1c2ccccc2C(=O)C1C(c1ccc([N+](=O)[O-])cc1)C1C(=O)c2ccccc2C1=O` [NSC643148], 51.85 °C. Turning to `COc1cc(C(=O)C(=O)c2ccc(O)c(OC)c2)ccc1O` [NSC16722], the Tm stood at 50.74 °C. With `O=C(/C=C/c1ccc(O)c(O)c1)c1ccccc1O` [NSC37433], the Tm stood at 66.27 °C. On to `CN(C)c1ccc(/C=C/C(=O)c2cc(Cl)ccc2O)cc1` [NSC11437], for which the Tm came to 51.33 °C. The same measure, in the same setting: for `Cc1cc(N(CCCl)CCCl)ccc1/C=N/NC(=O)Cc1cc(=O)oc2cc(O)ccc12` [NSC79688] the value was 51.43 °C.

Staying with this test, now noted: second round best hit vs NSC37433.
Take `COc1cccc(NC(S)=Nc2ccc(O)cc2)c1` [NSC201634]: the “increase in the affinity compared to the best hit from the initial round (NSC37433)” value is ~ 10,000 fold.

The test is the same for the next values; noted with them: second round of screening, seeded with NSC37433.
With `O=C(Nc1ccc(Oc2ccc(NC(=O)Nc3ccc([N+](=O)[O-])cc3)cc2)cc1)Nc1ccc([N+](=O)[O-])cc1` [NSC80735], the Tm came to 62.86 °C.

As for `COc1cccc(NC(S)=Nc2ccc(O)cc2)c1` [NSC201634], the Tm was 83.79 °C. Still for that read-out and setting: for `Cc1ccc(C(C)C)cc1NC(=O)Nc1ccc([N+](=O)[O-])cc1` [NSC46492] the value was 57.96 °C.
